The source of these data is US8486968B2, “Compounds” (Boehringer Ingelheim International GmbH, priority 2010, dated 2013).

SMILES strings stand for the structures.

Test [1] concerns the target T1, mPGES-1 (Homo sapiens, UniProt O14684).
T1 sequence (O14684 1-152): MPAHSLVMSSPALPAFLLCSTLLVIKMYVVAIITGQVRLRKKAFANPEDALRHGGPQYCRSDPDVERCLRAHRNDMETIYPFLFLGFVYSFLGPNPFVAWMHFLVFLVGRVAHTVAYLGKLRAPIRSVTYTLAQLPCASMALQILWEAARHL
The experiment in a line: A549 cell-based assay (PGE2 formation, IL-1β stimulated, 50% human serum). Also noted: host or cells: A549 cells. The procedure: Although the enzymatic assay is a high throughput assay the disadvantage is that it uses a recombinant protein which is not in its natural environment. Accordingly a cellular assay was established in which a cell line of human origin (A549) expressing the mPGES-1 protein was used. In addition in order to mimic the situation in humans in which compounds can be bound to plasma proteins 50% human serum is added in the assay. By having the combination of testing mPGES-1 in a cellular environment and the presence of 50% human serum this assay has a higher relevance to judge the therapeutic potential of a mPGES-inhibitor than the pure enzyme assay.
A549 cells (ATCC: CCL-185) are grown to about 90% confluence in F-12K Nutrient Mixture (Kaighn's Mod. Gibco) containing 10% FBS in a humified incubator at 37° C. and 5% CO2. Cells were detached using Trypsin-EDTA. A549 cells were seeded in a 384-well collagene plate at a density of 7000 cells/well (50 μl) in F-12 medium containing 1% Penicillin-Streptomycin and 50% human serum. The cells were allowed to attach for 3-4 h. After that the cells were incubated for 20-24 h in F-12k medium supplemented with 50% human serum, 1% Penicillin-Streptomycin and containing IL-1β at a final concentration of 5 ng/ml as well as 10 nM arachidonic acid in the presence of a vehicle or a test compound. The total volume is 100 μl.
Concentrations of PGE2 in the cell free medium (10 μl) were measured using a commercially available HTRF kit from Cisbio (as described above). The PGE2 formation in the absence of test compound was taken as 100%.
IC50 values were derived from at 6-8 point titrations using conventional software.

The target in test [2] is T1, mPGES-1. The experiment in a line: mPGES-1 enzyme assay (HTRF detection of PGE2). The format is biochemical. Also on record: made in house; host or cells: Rosetta E. coli (membrane/microsome fraction). The protocol:
Microsomes from Rosetta E. coli bacteria expressing recombinant human mPGES-1 can be derived as described below:
Inoculate 5 ml LB with Ampicilin (50 μg/ml) and Chloramphenicol (34 μg/ml) with bacteria from freeze culture. Incubate 8 h at 37° C. with 200 rpm. Thereafter, inoculate 500-1000 ml LB containing Amp and Chloro with the 5 ml on culture and grow to OD640 of 0.8-1.0. Chill the culture to +4° C. before induction. Induce the culture with IPTG at a final concentration of 400 μM. Express the protein at room temp 18-23° C. with 200 rpm shaking over night.
The following steps can be performed on the following day: • 1. Spin down the cells in 250 ml centrifuge flasks for 15 min at 7000 rpm (Beckmann Coulte Avanti J-E centrifuge) • 2. Dissolve the pellet from 250 ml culture in 12.5 ml homogenization buffer • 3. (15 mM Tris-HCL pH8, 1 mM EDTA pH8, […], 2.5 mM GSH, 1 Tablet Protease inhibitor per 50 ml buffer) • 4. Disintegrate the cells by sonication, 5×10 seconds at 48% amplitude of a 750 W sonifier • 5. Add 2.5 ml MgCl2 (100 mM) and DNase 12.5 μl (0.8 mg/ml) and incubate on ice for 30 min • 6. Spin down the bacteria debris and save the supernatant, 7000 rpm for 15 min • 7. Isolate the protein containing membranes in the supernatant by ultracentrifugation 120000×g for 2 hour at 4° C. (Sorvall T880 rotor). • 8. Discard the supernatant and dissolve the pellet in 20 mM Potassium phosphate buffer pH 7.4 (KH2PO4 and K2HPO4) buffer by sonication (5×10 s, 30% of a 50 W sonifier) and aliquot the enzyme and store aliquots at −80° C.
Before each experiment is performed an aliquot of the enzyme is thawed and it can then be dissolved in 0.1 M Potassium phosphate buffer pH7.4 (KH2PO4 and K2HPO4) buffer containing 2.5 mM GSH.
The aim of this assay is the determine the affinity of a test compound for the mPGES-1 enzyme.
47 μl of recombinant human mPGES-1 (˜0.5 μg protein/well) containing microsomal suspension in a buffer containing GSH, (2.5 mmol/L L-Glutathione reduced, dissolved in 0.1 mol/L Phosphat Buffer pH 7.4) is dispensed in a 384-well plate and thereafter 1 μl of the test compound(s) is/are added and incubated for 25 minutes at room temperature. The enzyme reaction is started by the addition of 2 μl PGH2 (final conc. 2 μM) dissolved in water-free Diglyme. After 60 seconds the reaction is terminated by addition of a stop solution containing FeCl2 (10 μL 0.074 mol/l FeCl2). The samples are diluted between 1:25 in PBS (Phosphate Buffered Saline). 10 μl of the diluted samples are transferred to 384-well low volume plate. In order to quantify the amount of PGE2 that has been formed, a homogenous time resolved fluorescent (HTRF) detecting of PGE2 has been performed using a commercially available kit from Cisbio according to the manufactures recommendation. This HTRF-based assay has been described in detail (see: Goedken et al., J Biomol Screen, 2008, 13(7), 619-625). Briefly, the diluted samples are mixed with 5 μl PGE2-d2 conjungate and 5 μl anti-PGE2 cryptate conjungate. After an incubation period of the plates over night, the fluorescence is measured by the use of an appropriate microplate reader.
The fluorescence of Europium cryptate (maxex=307 nm, maxem=620 nm) and d2-PGE2 (maxex=620 nm, maxem=665 nm) are measured.
The extent of the specific HTRF is measured as a ratio of the emission intensity at 665 nm vs. that at 620 nm at an excitation puls of 320 nm. The quantification plate contains also wells with different concentrations of PGE2 as calibration curve for the calculation of the PGE2 concentrations from the HTRF ratio values.
From all mPGES enzyme assay the background is subtracted and the IC50 is calculated over a nonlinear regression with conventional software.
(TR-FRET usually uses a lanthanide donor and a delayed reading to cut background.)

[3] abbreviates: A549 cells, IL-1β 5 ng/ml, 20-24 h, Table B, read-out: mPGES-1 inhibitory effect, IC50, cell assay.
Setting [4] is: recombinant human mPGES-1 microsomes, PGH2 2 μM, Table A, read-out: mPGES-1 inhibitory effect, IC50, enzyme assay.
The mark [5] stands for this setting: Table C comparison of enzym and cell IC50, A549 cells, read-out: Cell IC50.
Setting [6] is: Table C comparison of enzym and cell IC50, read-out: Enzym IC50.

The IC50 is the midpoint of a concentration-inhibition curve. Turning to `CN(Cc1nncn1C)c1nc2c(cc1C(=O)N[C@H]1CC[C@H](C(F)(F)F)CC1)nc(Nc1c(Cl)ccc(CNC(=O)C(C)(C)C)c1Cl)n2C` [Example 21], the IC50 turned out to be 90 nM at mPGES-1 [1] (setting [3]) and 4 nM on mPGES-1 [2] (setting [4]).
Turning to `CN(CC1(C)COC1)c1nc2c(cc1C(=O)N[C@H]1CC[C@H](C(F)(F)F)CC1)nc(Nc1c(Cl)ccc(CNC(=O)C(C)(C)C)c1Cl)n2C` [Example 22], the IC50 at mPGES-1 [1] (setting [3]) was 15 nM; at mPGES-1 [2] (setting [4]), 3 nM.
The matching figures for `Cn1c(Nc2c(Cl)ccc(CNC(=O)C(C)(C)C)c2Cl)nc2cc(C(=O)N[C@H]3CC[C@H](C(F)(F)F)CC3)c(N(CC3CC3)C3CC3)nc21` [Example 23]: 5 nM and 1 nM.
The corresponding values for `Cn1c(Nc2c(Cl)ccc(CNC(=O)C(C)(C)C)c2Cl)nc2cc(C(=O)Nc3ccc(OC(F)(F)F)cc3)c(N3CCC(C(F)(F)F)CC3)nc21` [Example 24, N-(4-Trifluoromethoxyphenyl)-2-{2,6-dichloro-3-[(2,2-dimethyl-propionylamino)-methyl]-phenylamino}-5-[4-trifluoromethyl-piperidinyl]-3-methyl-3H-imidazo[4,5-b]pyridine-6-carboxamide] are 5 nM and 1 nM.
Turning to `CC(C)(C)C(=O)NCc1ccc(Cl)c(Nc2nc3cc(C(=O)N[C@H]4CC[C@H](C(F)(F)F)CC4)c(N4CCOCC4)nc3n2CC(F)F)c1Cl` [Example 25], the figures for the IC50 on mPGES-1 [1] (setting [3]) and on mPGES-1 [2] (setting [4]) were 7 nM and 4 nM, respectively.
With `CN(C)C(=O)Cn1c(Nc2c(Cl)ccc(CNC(=O)C(C)(C)C)c2Cl)nc2cc(C(=O)N[C@H]3CC[C@H](C(F)(F)F)CC3)c(N3CCC(C(F)(F)F)CC3)nc21` [Example 29], the IC50 was determined as 39 nM at mPGES-1 [1] (setting [3]) and 10 nM at mPGES-1 [2] (setting [4]).
On to `CC(NC(=O)c1cc2nc(Nc3c(Cl)ccc(CNC(=O)C(C)(C)C)c3Cl)n(C)c2nc1N1CCC(C(F)(F)F)CC1)C(F)(F)F` (stereo not shown) [Example 31], for which the IC50 on mPGES-1 [1] (setting [3]) turned out to be 20 nM; at mPGES-1 [2] (setting [4]), 3 nM.
As to `Cn1c(Nc2c(Cl)ccc(CNC(=O)C(C)(C)C)c2Cl)nc2cc(C(=O)NCC(F)(F)F)c(N3CCC(C(F)(F)F)CC3)nc21` [Example 32], the values for the IC50 at mPGES-1 [1] (setting [3]) and at mPGES-1 [2] (setting [4]) were 12 nM and 4 nM, respectively.
On to `Cn1c(Nc2c(Cl)ccc(CNC(=O)C(C)(C)C)c2Cl)nc2cc(C(=O)NCCCC(F)(F)F)c(N3CCC(C(F)(F)F)CC3)nc21` [Example 33], for which the IC50 on mPGES-1 [1] (setting [3]) worked out at 8 nM; on mPGES-1 [2] (setting [4]) it was 2 nM.
As to `Cn1c(Nc2c(Cl)ccc(CNC(=O)C(C)(C)C)c2Cl)nc2cc(C(=O)NCC(F)(F)C(F)(F)F)c(N3CCC(C(F)(F)F)CC3)nc21` [Example 34], the figures for the IC50 on mPGES-1 [1] (setting [3]) and on mPGES-1 [2] (setting [4]) were 10 nM and 2 nM, respectively.
Take `Cn1c(Nc2c(Cl)ccc(CNC(=O)C(C)(C)C)c2Cl)nc2cc(C(=O)NC3CC(F)(F)C3)c(N3CCC(C(F)(F)F)CC3)nc21` [Example 35]: the IC50 worked out at 16 nM at mPGES-1 [1] (setting [3]) and 5 nM on mPGES-1 [2] (setting [4]).
In the case of `Cn1c(Nc2c(Cl)ccc(CNC(=O)C(C)(C)C)c2Cl)nc2cc(C(=O)N[C@H](c3ccccc3)C(F)(F)F)c(N3CCC(C(F)(F)F)CC3)nc21` [Example 36], the IC50 on mPGES-1 [1] (setting [3]) amounted to 6 nM; at mPGES-1 [2] (setting [4]), 2 nM.
The matching figures for `Cn1c(Nc2c(Cl)ccc(CNC(=O)C(C)(C)C)c2Cl)nc2cc(C(=O)NC3(c4ccc(F)cc4)CC3)c(N3CCC(C(F)(F)F)CC3)nc21` [Example 37]: 8 nM and 3 nM.
With `Cn1c(Nc2c(Cl)ccc(CNC(=O)C(C)(C)C)c2Cl)nc2cc(C(=O)NCc3ccc(F)cc3C(F)(F)F)c(N3CCC(C(F)(F)F)CC3)nc21` [Example 38], the IC50 on mPGES-1 [1] (setting [3]) was 16 nM; on mPGES-1 [2] (setting [4]), 2 nM.
Turning to `Cn1c(Nc2c(Cl)ccc(CNC(=O)C(C)(C)C)c2Cl)nc2cc(C(=O)Nc3cccc(OC(F)(F)F)c3)c(N3CCC(C(F)(F)F)CC3)nc21` [Example 40], the half-inhibitory concentration (IC50) worked out at 13 nM at mPGES-1 [1] (setting [3]) and 3 nM at mPGES-1 [2] (setting [4]).
Consider `Cn1c(Nc2c(Cl)ccc(CNC(=O)C(C)(C)C)c2Cl)nc2cc(C(=O)Nc3ccc(F)c(Cl)c3)c(N3CCC(C(F)(F)F)CC3)nc21` [Example 41], for which the IC50 at mPGES-1 [1] (setting [3]) stood at 2 nM; at mPGES-1 [2] (setting [4]) it was 1 nM.
Turning to `Cn1c(Nc2c(Cl)ccc(CNC(=O)C(C)(C)C)c2Cl)nc2cc(C(=O)NC(c3ccccn3)C(F)(F)F)c(N3CCC(C(F)(F)F)CC3)nc21` (stereo not shown) [Example 42], the IC50 on mPGES-1 [1] (setting [3]) is 4 nM; at mPGES-1 [2] (setting [4]) it was 2 nM.
With `Cn1c(Nc2c(Cl)ccc(CNC(=O)C(C)(C)C)c2Cl)nc2cc(C(=O)NCc3ncccc3C(F)(F)F)c(N3CCC(C(F)(F)F)CC3)nc21` [Example 43], the IC50 on mPGES-1 [1] (setting [3]) came to 6 nM; at mPGES-1 [2] (setting [4]) it was 5 nM.
As for `Cn1c(Nc2c(Cl)ccc(CNC(=O)C(C)(C)C)c2Cl)nc2cc(C(=O)Nc3cccc(C(F)(F)F)n3)c(N3CCC(C(F)(F)F)CC3)nc21` [Example 44], the IC50 at mPGES-1 [1] (setting [3]) came out at 56 nM; on mPGES-1 [2] (setting [4]), 4 nM.
Take `CC(NC(=O)c1cc2nc(Nc3c(Cl)ccc(CNC(=O)C(C)(C)C)c3Cl)n(C)c2nc1N1CCC(C(F)(F)F)CC1)c1cccs1` (stereo not shown) [Example 45]: the figures for the 50% inhibitory concentration (IC50) on mPGES-1 [1] (setting [3]) and on mPGES-1 [2] (setting [4]) were 12 nM and 4 nM, respectively.
Regarding `Cn1c(Nc2c(Cl)ccc(CNC(=O)C(C)(C)C)c2Cl)nc2cc(C(=O)NCC3CC3)c(N3CCC(C(F)(F)F)CC3)nc21` [Example 46], the IC50 on mPGES-1 [1] (setting [3]) is 8 nM; at mPGES-1 [2] (setting [4]), under 1 nM.
`Cn1c(Nc2c(Cl)cc(F)cc2Cl)nc2cc(C(=O)N[C@H]3CC[C@H](C(F)(F)F)CC3)c(OCC(F)F)nc21` [reference compound]: the IC50 at mPGES-1 [1] (setting [5]) turned out to be 161 nM; on mPGES-1 [2] (setting [6]), 4 nM.
In the case of `Cn1c(Nc2cc(CNC(=O)C(C)(C)C)ccc2Cl)nc2cc(C(=O)N[C@H]3CC[C@H](C(F)(F)F)CC3)c(OCC(F)(F)F)cc21` [reference compound], the concentration for half-maximal inhibition (IC50) worked out at 89 nM at mPGES-1 [1] (setting [5]) and 8 nM on mPGES-1 [2] (setting [6]).
